± gives the expanded uncertainty stated by the source.
How the values were obtained:
[1] = 101 kPa, Liquid; for viscosity: Falling or rolling sphere viscometry; for mass density: Vibrating tube method
[2] = xn = mol fraction of the nth substance listed; settings: 101 kPa, Liquid, x2 = 0; for viscosity: Falling or rolling sphere viscometry; for mass density: Vibrating tube method

CCCCn1cc[n+](C)c1C.F[B-](F)(F)F [1-butyl-2,3-dimethylimidazolium tetrafluoroborate]
[1]
Settings	mass density [kg/m3]	viscosity [mPa·s]
298.15 K	1193.19 ± 0.12	650 ± 56
303.15 K	1189.8 ± 0.12	447 ± 33
313.15 K	1183.02 ± 0.11	232.9 ± 12
323.15 K	1176.38 ± 0.11	132.8 ± 4.4
333.15 K	1169.82 ± 0.11	81.53 ± 1.5
343.15 K	1163.26 ± 0.11	53.99 ± 0.56
353.15 K	1156.71 ± 0.1	37.13 ± 0.46

CC#N [acetonitrile]
[1]
Settings	mass density [kg/m3]	viscosity [mPa·s]
298.15 K	776.55 ± 0.15	0.37 ± 0.005
303.15 K	771.13 ± 0.15	0.354 ± 0.004
313.15 K	760.18 ± 0.15	0.327 ± 0.004
323.15 K	749.11 ± 0.16	0.302 ± 0.004
333.15 K	737.86 ± 0.16	0.281 ± 0.004
343.15 K	726.43 ± 0.17	0.262 ± 0.003

CC#N [acetonitrile] + CCCCn1cc[n+](C)c1C.F[B-](F)(F)F
[2]
Settings	mass density [kg/m3]	viscosity [mPa·s]
298.15 K	776.55 ± 0.15	0.37 ± 0.005
303.15 K	771.13 ± 0.15	0.354 ± 0.004
313.15 K	760.18 ± 0.15	0.327 ± 0.004
323.15 K	749.11 ± 0.16	0.302 ± 0.004
333.15 K	737.86 ± 0.16	0.281 ± 0.004
343.15 K	726.43 ± 0.17	0.262 ± 0.003

C[S+](C)[O-] [dimethyl sulfoxide]
[1]
Settings	mass density [kg/m3]	viscosity [mPa·s]
298.15 K	1095.74 ± 0.07	2.012 ± 0.025
303.15 K	1090.73 ± 0.07	1.843 ± 0.023
313.15 K	1080.69 ± 0.07	1.556 ± 0.019
323.15 K	1070.66 ± 0.06	1.337 ± 0.016
333.15 K	1060.63 ± 0.06	1.165 ± 0.014
343.15 K	1050.58 ± 0.06	1.028 ± 0.013
353.15 K	1040.51 ± 0.05	0.917 ± 0.011

C[S+](C)[O-] [dimethyl sulfoxide] + CCCCn1cc[n+](C)c1C.F[B-](F)(F)F
[2]
Settings	mass density [kg/m3]	viscosity [mPa·s]
298.15 K	1095.74 ± 0.07	2.012 ± 0.025
303.15 K	1090.73 ± 0.07	1.843 ± 0.023
313.15 K	1080.69 ± 0.07	1.556 ± 0.019
323.15 K	1070.66 ± 0.06	1.337 ± 0.016
333.15 K	1060.63 ± 0.06	1.165 ± 0.014
343.15 K	1050.58 ± 0.06	1.028 ± 0.013
353.15 K	1040.51 ± 0.05	0.917 ± 0.011

Source: the NIST ThermoML archive (doi:10.1021/je3007474)
